In patent US20230085307A1, “PYRIDAZINONE COMPOUND AND HERBICIDE” (NISSAN CHEMICAL CORPORATION, priority 2019, published 2023):

How the values were obtained:
barnyard grass [1] = test: Test Example 5: herbicidal effect by foliage application, plastic box (Table 20, symbol H); format: in vivo, barnyard grass (Echinochloa crus-galli); settings: foliage application, 320 g/ha, three weeks after application
Summary of the method: (§1)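 Sow seeds spot-wise in sterilized diluvial soil; cover with ~1.5 cm soil. Grow 14 days in greenhouse, 25° C. to 30° C. Spray foliage with emulsion diluted to predetermined amount. Rate effect after 3 weeks.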

barnyard grass [2] = test: Test Example 3: herbicidal effect by foliage application, Wagner pot (Table 18, symbol H); format: in vivo, barnyard grass (Echinochloa crus-galli); settings: 320 g/ha
Summary of the method: (§2)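 Plants were sown in alluvial soil held under 0.1–0.5 cm standing water and grown 14 days in a greenhouse at 25–30 °C. An emulsifiable formulation, water-diluted to the set dose, was then sprayed onto the foliage, and effects were scored three weeks later using previously defined criteria.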

green foxtail [3] = test: Test Example 4: herbicidal effect by soil treatment (Table 19, symbol G); format: in vivo, green foxtail (Setaria viridis); settings: amount of applied herbicide 320 g/ha
Summary of the method: (§3)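 Soil-surface application: an emulsion agent diluted with water to the predetermined dose is sprayed uniformly over seeds lying under roughly 1.5 cm of sterilized diluvial soil. Boxes stay in a greenhouse at 25° C. to 30° C. Three weeks later, each species is graded on previously defined criteria.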

Chinese sprangletop = test: Test Example 3: herbicidal effect by foliage application, Wagner pot (Table 18, symbol D); format: in vivo, chinese sprangletop (Leptochloa chinensis); settings: 320 g/ha
Summary of the method: as §2

velvetleaf [4] = test: Test Example 5: herbicidal effect by foliage application, plastic box (Table 20, symbol M); format: in vivo, velvetleaf (Abutilon theophrasti); settings: foliage application, 320 g/ha, three weeks after application
Summary of the method: as §1

velvetleaf [5] = test: Test Example 4: herbicidal effect by soil treatment (Table 19, symbol M); format: in vivo, velvetleaf (Abutilon theophrasti); settings: amount of applied herbicide 320 g/ha
Summary of the method: as §3

late watergrass [6] = test: Test Example 2: herbicidal activity, application during weed generation under submerged conditions (Table 17, symbol A); format: in vivo, late watergrass (Echinochloa oryzicola); settings: AAH 320 g/ha; application during weed generation, submerged conditions
Summary of the method: (§4)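 Mixed weed seedlings in alluvial soil under a 4 cm water layer, greenhouse-grown at 25–30° C. Compound given as a diluted emulsion into the floodwater at the 1–2 leaf stage; response graded after three weeks.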

redroot pigweed [7] = test: Test Example 4: herbicidal effect by soil treatment (Table 19, symbol N); format: in vivo, redroot pigweed (Amaranthus retroflexus); settings: amount of applied herbicide 320 g/ha
Summary of the method: as §3

lambsquarters = test: Test Example 5: herbicidal effect by foliage application, plastic box (Table 20, symbol O); format: in vivo, lambsquarters (Chenopodium album); settings: foliage application, 320 g/ha, three weeks after application
Summary of the method: as §1

windgrass [8] = test: Test Example 5: herbicidal effect by foliage application, plastic box (Table 20, symbol L); format: in vivo, windgrass (Apera spica-venti); settings: foliage application, 320 g/ha, three weeks after application
Summary of the method: as §1

redroot pigweed [9] = test: Test Example 5: herbicidal effect by foliage application, plastic box (Table 20, symbol N); format: in vivo, redroot pigweed (Amaranthus retroflexus); settings: foliage application, 320 g/ha, three weeks after application
Summary of the method: as §1

late watergrass [10] = test: Test Example 1: herbicidal activity, application before weed generation under submerged conditions (Table 16, symbol A); format: in vivo, late watergrass (Echinochloa oryzicola); settings: amount of applied herbicide 320 g/ha
Summary of the method: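 Emulsion formulation, water-diluted to set dose, was put onto the flooded surface (4 cm depth, alluvial soil) the same day weeds were sown and 2.5-leaf rice transplanted. After 3 weeks at 25-30 °C under glass, each species was rated 0 (≤5% kill) to 5 (≥90% kill).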

green foxtail [11] = test: Test Example 5: herbicidal effect by foliage application, plastic box (Table 20, symbol G); format: in vivo, green foxtail (Setaria viridis); settings: foliage application, 320 g/ha, three weeks after application
Summary of the method: as §1

oval-leafed pondweed = test: Test Example 2: herbicidal activity, application during weed generation under submerged conditions (Table 17, symbol C); format: in vivo, oval-leafed pondweed (Monochoria vaginalis); settings: AAH 320 g/ha; application during weed generation, submerged conditions
Summary of the method: as §4

wild oat = test: Test Example 5: herbicidal effect by foliage application, plastic box (Table 20, symbol I); format: in vivo, wild oat (Avena fatua); settings: foliage application, 320 g/ha, three weeks after application
Summary of the method: as §1

windgrass [12] = test: Test Example 4: herbicidal effect by soil treatment (Table 19, symbol L); format: in vivo, windgrass (Apera spica-venti); settings: amount of applied herbicide 320 g/ha
Summary of the method: as §3

Row | Compound | H: barnyard grass, herbicidal effect grade (barnyard grass [1]) | herbicidal effect on barnyard grass (H) (barnyard grass [2]) | G: green foxtail, herbicidal effect grade (green foxtail [3]) | herbicidal effect on Chinese sprangletop (D) (Chinese sprangletop) | M: velvetleaf, herbicidal effect grade (velvetleaf [4]) | M: velvetleaf, herbicidal effect grade (velvetleaf [5]) | herbicidal effect rating, A: late watergrass (late watergrass [6]) | N: redroot pigweed, herbicidal effect grade (redroot pigweed [7]) | O: lambsquarters, herbicidal effect grade (lambsquarters) | L: windgrass, herbicidal effect grade (windgrass [8]) | N: redroot pigweed, herbicidal effect grade (redroot pigweed [9]) | Herbicidal effect, A: late watergrass (late watergrass [10]) | herbicidal effect rating, C: oval-leafed pondweed (oval-leafed pondweed) | herbicidal effect on barnyard grass (H) (barnyard grass [1]) | herbicidal effect on velvetleaf (M) (velvetleaf [4]) | herbicidal effect on lambsquarters (O) (lambsquarters) | herbicidal effect on windgrass (L) (windgrass [8]) | L: windgrass, herbicidal effect grade (windgrass [12]) | herbicidal effect on green foxtail (G) (green foxtail [11]) | herbicidal effect on wild oat (I) (wild oat) | further results
1 | COc1cc(F)ccc1-c1sc2cc(Cl)ccc2c1-c1c(O)c(C)nn(C)c1=O [3-043] | 4 (Herbicidal rate of 70% or more and less than 90%) | 5 (Herbicidal rate of 90% or more (almost completely withered)) | 4 (Herbicidal rate of 70% or more and less than 90%) | 3 (Herbicidal rate of 40% or more and less than 70%) | 5 (Herbicidal rate of 90% or more (almost completely withered)) | 3 (Herbicidal rate of 40% or more and less than 70%) | 3 (Herbicidal rate of 40% or more and less than 70%) | 4 (Herbicidal rate of 70% or more and less than 90%) | 4 (Herbicidal rate of 70% or more and less than 90%) | 5 (Herbicidal rate of 90% or more (almost completely withered)) | 2 (Herbicidal rate of 20% or more and less than 40%) | 0 (Herbicidal rate of 5% or less (almost no effect)) | 0 (Herbicidal rate of 5% or less (almost no effect)) |  |  |  |  |  |  |  | G: green foxtail, herbicidal effect grade (green foxtail [11]): 5 (Herbicidal rate of 90% or more (almost completely withered)); I: wild oat, herbicidal effect grade (wild oat): 4 (Herbicidal rate of 70% or more and less than 90%)
2 | CCCOc1ccc2c(-c3c(O)c(C)nn(C)c3=O)c(-c3ccccc3OC)sc2c1 [3-099] | 5 (Herbicidal rate of 90% or more (almost completely withered)) | 5 (Herbicidal rate of 90% or more (almost completely withered)) | 5 (Herbicidal rate of 90% or more (almost completely withered)) | 5 (Herbicidal rate of 90% or more (almost completely withered)) | 5 (Herbicidal rate of 90% or more (almost completely withered)) | 3 (Herbicidal rate of 40% or more and less than 70%) | 3 (Herbicidal rate of 40% or more and less than 70%) | 5 (Herbicidal rate of 90% or more (almost completely withered)) | 5 (Herbicidal rate of 90% or more (almost completely withered)) | 5 (Herbicidal rate of 90% or more (almost completely withered)) | 5 (Herbicidal rate of 90% or more (almost completely withered)) | 5 (Herbicidal rate of 90% or more (almost completely withered)) | 3 (Herbicidal rate of 40% or more and less than 70%) |  |  |  |  |  |  |  | G: green foxtail, herbicidal effect grade (green foxtail [11]): 5 (Herbicidal rate of 90% or more (almost completely withered)); I: wild oat, herbicidal effect grade (wild oat): 2 (Herbicidal rate of 20% or more and less than 40%)
3 | COc1ccccc1-c1sc2cc(C)c(C)cc2c1-c1c(O)c(C)nn(C)c1=O [5-090] |  | 5 (Herbicidal rate of 90% or more (almost completely withered)) | 0 (Herbicidal rate of 5% or less (almost no effect)) | 2 (Herbicidal rate of 20% or more and less than 40%) |  | 0 (Herbicidal rate of 5% or less (almost no effect)) | 0 (Herbicidal rate of 5% or less (almost no effect)) | 0 (Herbicidal rate of 5% or less (almost no effect)) |  |  |  | 3 (Herbicidal rate of 40% or more and less than 70%) | 0 (Herbicidal rate of 5% or less (almost no effect)) | 4 (Herbicidal rate of 70% or more and less than 90%) | 5 (Herbicidal rate of 90% or more (almost completely withered)) | 4 (Herbicidal rate of 70% or more and less than 90%) | 4 (Herbicidal rate of 70% or more and less than 90%) | 3 (Herbicidal rate of 40% or more and less than 70%) | 5 (Herbicidal rate of 90% or more (almost completely withered)) | 0 (Herbicidal rate of 5% or less (almost no effect)) | 
4 | CCCC(=O)Oc1c(C)nn(C)c(=O)c1-c1c(-c2ccccc2OCC)sc2cc(C)c(C)cc12 [5-095] |  | 5 (Herbicidal rate of 90% or more (almost completely withered)) | 0 (Herbicidal rate of 5% or less (almost no effect)) | 5 (Herbicidal rate of 90% or more (almost completely withered)) |  | 0 (Herbicidal rate of 5% or less (almost no effect)) | 4 (Herbicidal rate of 70% or more and less than 90%) | 0 (Herbicidal rate of 5% or less (almost no effect)) |  |  |  | 5 (Herbicidal rate of 90% or more (almost completely withered)) | 4 (Herbicidal rate of 70% or more and less than 90%) | 4 (Herbicidal rate of 70% or more and less than 90%) | 4 (Herbicidal rate of 70% or more and less than 90%) | 3 (Herbicidal rate of 40% or more and less than 70%) | 4 (Herbicidal rate of 70% or more and less than 90%) | 0 (Herbicidal rate of 5% or less (almost no effect)) | 5 (Herbicidal rate of 90% or more (almost completely withered)) | 3 (Herbicidal rate of 40% or more and less than 70%) | 
5 | CCOc1cc(F)ccc1-c1sc2cc(C)c(C)cc2c1-c1c(O)c(C)nn(C)c1=O [5-103] |  | 5 (Herbicidal rate of 90% or more (almost completely withered)) | 3 (Herbicidal rate of 40% or more and less than 70%) | 4 (Herbicidal rate of 70% or more and less than 90%) |  | 1 (Herbicidal rate of 5% or more and less than 20%) | 2 (Herbicidal rate of 20% or more and less than 40%) | 2 (Herbicidal rate of 20% or more and less than 40%) |  |  |  | 5 (Herbicidal rate of 90% or more (almost completely withered)) | 3 (Herbicidal rate of 40% or more and less than 70%) | 5 (Herbicidal rate of 90% or more (almost completely withered)) | 5 (Herbicidal rate of 90% or more (almost completely withered)) | 4 (Herbicidal rate of 70% or more and less than 90%) | 5 (Herbicidal rate of 90% or more (almost completely withered)) | 3 (Herbicidal rate of 40% or more and less than 70%) | 5 (Herbicidal rate of 90% or more (almost completely withered)) | 4 (Herbicidal rate of 70% or more and less than 90%) | 
